#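 Grown in 96-well plates, cells were treated for 48 hours with each compound at five concentrations. Insufficient inhibition: endpoint recorded as highest concentration tested. GI50: concentration for 50% inhibition of growth.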 Active and inactive are the calls of the source. Cut-off read from the data, not from the text of the source: active = GI50 up to about 1.1 µM and inactive = higher.
# Columns and labels:
# Assay in all cases: DTP human tumour cell line panel, 48 h
# NCI/ADR-RES = system: NCI/ADR-RES
# SW-620 = system: SW-620
# SK-MEL-2 = system: SK-MEL-2
# UO-31 = system: UO-31
# SK-OV-3 = system: SK-OV-3
# OVCAR-5 = system: OVCAR-5
# MOLT-4 = system: MOLT-4
# KM12 = system: KM12
# RPMI-8226 = system: RPMI-8226
# SF-539 = system: SF-539
# Malme-3M = system: Malme-3M
# A498 = system: A498
# UACC-62 = system: UACC-62
# T47D = system: T47D
# OVCAR-4 = system: OVCAR-4
# HCT-116 = system: HCT-116
# RXF 393 = system: RXF 393
# HCT-15 = system: HCT-15
# ACHN = system: ACHN
# MDA-N = system: MDA-N
# BT-549 = system: BT-549
# 786-0 = system: 786-0
# SK-MEL-5 = system: SK-MEL-5
# DU-145 = system: DU-145
# NCI-H522 = system: NCI-H522
# SN12C = system: SN12C
# HOP-62 = system: HOP-62
# MCF7 = system: MCF7
# MDA-MB-435 = system: MDA-MB-435
# PC-3 = system: PC-3
# SF-268 = system: SF-268
# NCI-H460 = system: NCI-H460
# SNB-75 = system: SNB-75
# HL-60 = system: HL-60
# HOP-92 = system: HOP-92
# LOX IMVI = system: LOX IMVI
# COLO 205 = system: COLO 205
# Hs-578T = system: Hs-578T
# CCRF-CEM = system: CCRF-CEM
# SK-MEL-28 = system: SK-MEL-28
# IGROV-1 = system: IGROV-1
# TK-10 = system: TK-10
# SF-295 = system: SF-295
# A549 = system: A549
# MDA-MB-231 = system: MDA-MB-231
# SNB-19 = system: SNB-19
# EKVX = system: EKVX
# SR = system: SR
# M14 = system: M14
# OVCAR-3 = system: OVCAR-3
# NCI-H23 = system: NCI-H23
# UACC-257 = system: UACC-257
# HCC 2998 = system: HCC 2998
# U-251 = system: U-251
# HT-29 = system: HT-29
# CAKI-1 = system: CAKI-1
# OVCAR-8 = system: OVCAR-8
# NCI-H226 = system: NCI-H226
# K562 = system: K562
smiles,measurement,setting,value
COc1cc(/C=C/C(=N\NS(=O)(=O)c2ccc(C)cc2)c2sc(NNC(C)=O)nc2C)ccc1O,GI50,NCI/ADR-RES,> 100 µM (inactive)
same,GI50,SW-620,> 100 µM (inactive)
same,GI50,SK-MEL-2,> 100 µM (inactive)
same,GI50,UO-31,> 100 µM (inactive)
same,GI50,SK-OV-3,> 100 µM (inactive)
same,GI50,OVCAR-5,> 100 µM (inactive)
same,GI50,MOLT-4,> 100 µM (inactive)
same,GI50,KM12,> 100 µM (inactive)
same,GI50,RPMI-8226,> 100 µM (inactive)
same,GI50,SF-539,> 100 µM (inactive)
same,GI50,Malme-3M,> 100 µM (inactive)
same,GI50,A498,> 100 µM (inactive)
same,GI50,UACC-62,> 100 µM (inactive)
same,GI50,T47D,> 100 µM (inactive)
same,GI50,OVCAR-4,> 100 µM (inactive)
same,GI50,HCT-116,> 100 µM (inactive)
same,GI50,RXF 393,> 100 µM (inactive)
same,GI50,HCT-15,> 100 µM
same,GI50,ACHN,> 100 µM (inactive)
same,GI50,MDA-N,> 100 µM (inactive)
same,GI50,BT-549,> 100 µM (inactive)
same,GI50,786-0,> 100 µM (inactive)
same,GI50,SK-MEL-5,> 100 µM (inactive)
same,GI50,DU-145,> 100 µM (inactive)
same,GI50,NCI-H522,> 100 µM (inactive)
same,GI50,SN12C,> 100 µM (inactive)
same,GI50,HOP-62,> 100 µM (inactive)
same,GI50,MCF7,> 100 µM (inactive)
same,GI50,MDA-MB-435,> 100 µM (inactive)
same,GI50,PC-3,> 100 µM (inactive)
same,GI50,SF-268,> 100 µM (inactive)
same,GI50,NCI-H460,> 100 µM (inactive)
same,GI50,SNB-75,> 100 µM (inactive)
same,GI50,HL-60,> 100 µM (inactive)
same,GI50,HOP-92,> 100 µM (inactive)
same,GI50,LOX IMVI,> 100 µM (inactive)
same,GI50,COLO 205,> 100 µM (inactive)
same,GI50,Hs-578T,> 100 µM (inactive)
same,GI50,CCRF-CEM,> 100 µM (inactive)
same,GI50,SK-MEL-28,> 100 µM (inactive)
same,GI50,IGROV-1,> 100 µM (inactive)
same,GI50,TK-10,> 100 µM (inactive)
same,GI50,SF-295,> 100 µM (inactive)
same,GI50,A549,> 100 µM (inactive)
same,GI50,MDA-MB-231,69.2 µM (inactive)
same,GI50,SNB-19,> 100 µM (inactive)
same,GI50,EKVX,> 100 µM (inactive)
same,GI50,SR,> 100 µM (inactive)
same,GI50,M14,> 100 µM (inactive)
same,GI50,OVCAR-3,> 100 µM (inactive)
same,GI50,NCI-H23,> 100 µM (inactive)
same,GI50,UACC-257,> 100 µM (inactive)
same,GI50,HCC 2998,> 100 µM (inactive)
same,GI50,U-251,> 100 µM (inactive)
same,GI50,HT-29,> 100 µM (inactive)
same,GI50,CAKI-1,> 100 µM (inactive)
same,GI50,OVCAR-8,> 100 µM (inactive)
same,GI50,NCI-H226,> 100 µM (inactive)
CNc1cccnc1/C=N/N=C(/N)S,GI50,NCI/ADR-RES,3.01 µM (inactive)
same,GI50,SW-620,3.05 µM (inactive)
same,GI50,SK-MEL-2,9.89 µM (inactive)
same,GI50,UO-31,1.78 µM (inactive)
same,GI50,SK-OV-3,4.49 µM (inactive)
same,GI50,OVCAR-5,3.89 µM (inactive)
same,GI50,MOLT-4,1.5 µM (inactive)
same,GI50,KM12,4.52 µM (inactive)
same,GI50,RPMI-8226,> 4.59 µM (inactive)
same,GI50,SF-539,0.279 µM (active)
same,GI50,Malme-3M,1.95 µM (inactive)
same,GI50,A498,5.35 µM (inactive)
same,GI50,UACC-62,0.379 µM (active)
same,GI50,T47D,2.7 µM (inactive)
same,GI50,OVCAR-4,4.09 µM (inactive)
same,GI50,HCT-116,1.22 µM (inactive)
same,GI50,RXF 393,1.15 µM (inactive)
same,GI50,HCT-15,2.78 µM
same,GI50,ACHN,0.332 µM (active)
same,GI50,MDA-N,4.69 µM (inactive)
same,GI50,BT-549,1.71 µM (inactive)
same,GI50,786-0,0.38 µM (active)
same,GI50,SK-MEL-5,3.2 µM (inactive)
same,GI50,DU-145,0.685 µM (active)
same,GI50,NCI-H522,2.47 µM (inactive)
same,GI50,SN12C,1.33 µM (inactive)
same,GI50,HOP-62,3.11 µM (inactive)
same,GI50,MCF7,0.471 µM (active)
same,GI50,MDA-MB-435,2.41 µM (inactive)
same,GI50,PC-3,1.69 µM (inactive)
same,GI50,SF-268,0.612 µM (active)
same,GI50,NCI-H460,2.46 µM (inactive)
same,GI50,SNB-75,0.863 µM (active)
same,GI50,HL-60,0.564 µM (active)
same,GI50,HOP-92,0.849 µM (active)
same,GI50,LOX IMVI,2.02 µM (inactive)
same,GI50,COLO 205,2.13 µM (inactive)
same,GI50,Hs-578T,> 10 µM (inactive)
same,GI50,CCRF-CEM,0.363 µM (active)
same,GI50,SK-MEL-28,7.74 µM (inactive)
same,GI50,IGROV-1,> 5.55 µM (inactive)
same,GI50,TK-10,8.65 µM (inactive)
same,GI50,SF-295,2 µM (inactive)
same,GI50,A549,2.61 µM (inactive)
same,GI50,MDA-MB-231,6.38 µM (inactive)
same,GI50,SNB-19,> 10 µM (inactive)
same,GI50,K562,> 4.76 µM (inactive)
same,GI50,EKVX,4.39 µM (inactive)
same,GI50,SR,> 2.84 µM (inactive)
same,GI50,M14,1.37 µM (inactive)
same,GI50,OVCAR-3,2.17 µM (inactive)
same,GI50,NCI-H23,0.403 µM (active)
same,GI50,UACC-257,> 10 µM (inactive)
same,GI50,HCC 2998,1.82 µM (inactive)
same,GI50,U-251,1.87 µM (inactive)
same,GI50,HT-29,2.45 µM (inactive)
same,GI50,CAKI-1,3.48 µM (inactive)
same,GI50,OVCAR-8,0.675 µM (active)
same,GI50,NCI-H226,2.75 µM (inactive)

# Reference: ChEMBL document CHEMBL1201862, “PubChem BioAssay data set” (2004)
